In PubChem BioAssay AID1963958 (Molecular Pharmacology Branch, DTP, NCI, 2024):

Test system: MDA-MB-231 multicell spheroids, viability
Test: Anticancer human tumor MDA-MB-231 cell line growth inhibition [PI3K];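 further: spheroids exposed to agents for seven days before reading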;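 on viability, T/C: percent of vehicle control luminescence with DMSO treated spheroids as 100%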
Conditions: for IC50: curve of first compound; for viability, T/C: stronger effect = lower value
Description: Combinatorial screen of targeted agents with the PI3K inhibitors inavolisib, alpelisib, duvelisib, and copanlisib in multi-cell type tumor spheroids
A high-throughput screen of multi-cell type tumor spheroids was designed to identify active combinations of targeted small molecules and PI3K pathway inhibitors. Complex spheroids include a stromal component modeled by human endothelial cells (HUVEC) and fibroblasts modeled by human mesenchymal stem cells (MSCs). The concentration ranges selected for each drug and investigational agent were based upon clinically achievable concentrations if the clinical Cmax of the agent was known.
Compounds. The drugs and investigational agents: inavolisib (NSC800729), alpelisib (NSC765974), duvelisib (NSC772469), copanlisib (NSC816437), ipatasertib (NSC767898), afuresertib (NSC778305), talazoparib (NSC767125), sapanisertib (NSC764658), selumetinib (NSC741078), tovorafenib (DAY101, NSC766906), vemurafenib (NSC761431), ravoxertinib (NSC781343), sotorasib (NSC818433), MRTX1133 (NSC 836407), abemaciclib (NSC 768073), palbociclib (NSC758247), venetoclax (NSC 766270), SY5609 (NSC837396), enzalutamide (NSC755605), and darolutamide (NSC825331), were obtained from the National Cancer Institute (NCI) Developmental Therapeutics Program Chemical Repository. The FDA-approved anticancer drug set is available from the NCI Developmental Therapeutics Program. […] The stock solutions were prepared in dimethyl sulfoxide (DMSO, Sigma-Aldrich, St. Louis, MO, cat. D2650) at 800-fold the tested concentration and stored at -70 degrees C prior to their use. All drugs and investigational agents were tested over a range starting from a high concentration at or near the clinical Cmax and decreasing in half-log increments. If the clinical Cmax for an agent had not been determined, the highest concentration tested was 10 microM.
Cell Culture. All cells were maintained in an incubator at 37 degrees C and 5% CO2 with 95% humidity. The PDC lines were cultured according to standard operating procedures established by the NCI PDMR (https://pdmr.cancer.gov/sops/default.htm). All PDCs were thawed and cultured in Matrigel-coated flasks prepared with a working solution of 1X Ham's F-12 nutrient mix, without supplementation (Invitrogen, Waltham, MA, cat. 11765054), 100 U/mL penicillin-streptomycin (Invitrogen, cat. 15140122), and 2.5% Matrigel (Corning Inc., Corning, NY, cat. 354248) for the first three passages. The 354836-022-R-J1-PDC, 475296-252-R-J1-PDC, and 997726-040-R-J2-PDC lines were cultured in 6A media, which includes advanced DMEM/F-12 (Thermo Fisher Scientific, cat. 12634028), 10 mM HEPES (Thermo Fisher Scientific, cat. 15630080), 1X GlutaMAX supplement (Thermo Fisher Scientific, cat. 35050061), 0.1 mg/mL primocin (InvivoGen, San Diego, CA, cat. ant-pm-2), 10% defined fetal bovine serum, heat inactivated (HyClone Laboratories Inc., Logan, UT, cat. SH30070.03HI), 50% L-WRN conditioned media (ATCC, cat. CRL-3276), 1.25 mM N-Acetyl-L-cysteine (Sigma-Aldrich, cat. A9165), 10 mM nicotinamide (Sigma-Aldrich, cat. N0636), 1X B-27 supplement (Thermo Fisher Scientific, cat. 17504044), 1X N-2 supplement (Thermo Fisher Scientific, cat. 17502048), and 10 microM Y-27632 dihydrochloride (Tocris Bioscience, Bristol, United Kingdom, cat. 1254). The 624824-186-R-J2-PDC line was cultured in 6C/Colon 1B media, which includes all 6A media components plus 50 ng/mL human EGF recombinant protein (Thermo Fisher Scientific, cat. PHG0311). […]

[1] = second compound 0.00316 µM, first compound 0.0316 µM
[2] = second compound 0.00316 µM, first compound 0.1 µM
[3] = second compound 0.00316 µM, first compound 0.316 µM
[4] = second compound 0.00316 µM, first compound 1 µM
[5] = second compound 0.00316 µM, first compound 3.16 µM
[6] = second compound 0.00316 µM, first compound 10 µM
[7] = second compound 0.01 µM, first compound 0.0316 µM
[8] = second compound 0.01 µM, first compound 0.1 µM
[9] = second compound 0.01 µM, first compound 0.316 µM
[10] = second compound 0.01 µM, first compound 1 µM
[11] = second compound 0.01 µM, first compound 3.16 µM
[12] = second compound 0.01 µM, first compound 10 µM
[13] = second compound 0.0316 µM, first compound 0.0316 µM
[14] = second compound 0.0316 µM, first compound 0.1 µM
[15] = second compound 0.0316 µM, first compound 0.316 µM
[16] = second compound 0.0316 µM, first compound 1 µM
[17] = second compound 0.0316 µM, first compound 3.16 µM
[18] = second compound 0.0316 µM, first compound 10 µM
[19] = second compound 0.1 µM, first compound 0.0316 µM
[20] = second compound 0.1 µM, first compound 0.1 µM
[21] = second compound 0.1 µM, first compound 0.316 µM
[22] = second compound 0.1 µM, first compound 1 µM
[23] = second compound 0.1 µM, first compound 3.16 µM
[24] = second compound 0.1 µM, first compound 10 µM
[25] = second compound 0.316 µM, first compound 0.0316 µM
[26] = second compound 0.316 µM, first compound 0.1 µM
[27] = second compound 0.316 µM, first compound 0.316 µM
[28] = second compound 0.316 µM, first compound 1 µM
[29] = second compound 0.316 µM, first compound 3.16 µM
[30] = second compound 0.316 µM, first compound 10 µM
[31] = second compound 1 µM, first compound 0.0316 µM
[32] = second compound 1 µM, first compound 0.1 µM
[33] = second compound 1 µM, first compound 0.316 µM
[34] = second compound 1 µM, first compound 1 µM
[35] = second compound 1 µM, first compound 3.16 µM
[36] = second compound 1 µM, first compound 10 µM

`C#Cc1c(F)ccc2cc(O)cc(-c3ncc4c(N5CC6CCC(C5)N6)nc(OCC56CCCN5CC(F)C6)nc4c3F)c12` (centres undefined) + CC(Nc1ccc2c(c1)OCCn1cc(N3C(=O)OCC3C(F)F)nc1-2)C(N)=O showed an IC50 (second compound 0.00316 µM) of 9.28 µM, an IC50 (second compound 0.01 µM) of 8.37 µM and an IC50 (second compound 0.0316 µM) of 4.68 µM. For the same compound, the IC50 (second compound 0.1 µM) was 3.36 µM, the IC50 (second compound 0.316 µM) was 1.54 µM and the IC50 (second compound 1 µM) was 1.06 µM. The viability, T/C [1] was 103%, the viability, T/C [2] was 99% and the viability, T/C [3] was 96.1%. The viability, T/C [4] was 86.7%, the viability, T/C [5] was 69.8% and the viability, T/C [6] was 48.6%. The viability, T/C [7] was 94%, the viability, T/C [8] was 94.8% and the viability, T/C [9] was 87.6%. The viability, T/C [10] was 78.3%, the viability, T/C [11] was 63.9% and the viability, T/C [12] was 47.4%. The viability, T/C [13] was 74.2%, the viability, T/C [14] was 83.1% and the viability, T/C [15] was 74.4%. It also gave a viability, T/C [16] of 61.4%, a viability, T/C [17] of 56.7% and a viability, T/C [18] of 41.8%. For the same compound, the viability, T/C [19] was 70.3%, the viability, T/C [20] was 65.3% and the viability, T/C [21] was 64.5%. For the same compound, the viability, T/C [22] was 56.8%, the viability, T/C [23] was 53.7% and the viability, T/C [24] was 35.5%. The viability, T/C [25] was 67.6%, the viability, T/C [26] was 67.1% and the viability, T/C [27] was 58.8%. For the same compound, the viability, T/C [28] was 54.2%, the viability, T/C [29] was 44% and the viability, T/C [30] was 33.4%. The viability, T/C [31] was 60.7%, the viability, T/C [32] was 54.4% and the viability, T/C [33] was 55.4%. It also gave a viability, T/C [34] of 51.4%, a viability, T/C [35] of 41.5% and a viability, T/C [36] of 28%.

Work on `C=CC(=O)N1CCN(c2nc(=O)n(-c3c(C)ccnc3C(C)C)c3nc(-c4c(O)cccc4F)c(F)cc23)C(C)C1` (centres undefined) + CC(Nc1ccc2c(c1)OCCn1cc(N3C(=O)OCC3C(F)F)nc1-2)C(N)=O yielded an IC50 (second compound 0.00316 µM) greater than 10 µM, an IC50 (second compound 0.01 µM) greater than 10 µM and an IC50 (second compound 0.0316 µM) greater than 10 µM. For the same compound, the IC50 (second compound 0.1 µM) was greater than 10 µM, the IC50 (second compound 0.316 µM) was greater than 10 µM and the IC50 (second compound 1 µM) was 8.26 µM. For the same compound, the viability, T/C [1] was 97.8%, the viability, T/C [2] was 113% and the viability, T/C [3] was 117%. The viability, T/C [4] was 124%, the viability, T/C [5] was 126% and the viability, T/C [6] was 111%. For the same compound, the viability, T/C [7] was 97.5%, the viability, T/C [8] was 99.1% and the viability, T/C [9] was 99.3%. It also gave a viability, T/C [10] of 119%, a viability, T/C [11] of 122% and a viability, T/C [12] of 106%. For the same compound, the viability, T/C [13] was 80.3%, the viability, T/C [14] was 86.1% and the viability, T/C [15] was 88.3%. The viability, T/C [16] was 97.8%, the viability, T/C [17] was 99.2% and the viability, T/C [18] was 82.1%. For the same compound, the viability, T/C [19] was 69.8%, the viability, T/C [20] was 71.2% and the viability, T/C [21] was 81.6%. The viability, T/C [22] was 73%, the viability, T/C [23] was 68.5% and the viability, T/C [24] was 59.3%. The viability, T/C [25] was 68.7%, the viability, T/C [26] was 64.6% and the viability, T/C [27] was 67.8%. For the same compound, the viability, T/C [28] was 68.8%, the viability, T/C [29] was 62.1% and the viability, T/C [30] was 48%. It also gave a viability, T/C [31] of 59.2%, a viability, T/C [32] of 57.7% and a viability, T/C [33] of 62.1%. It also gave a viability, T/C [34] of 60.6%, a viability, T/C [35] of 58.1% and a viability, T/C [36] of 40.3%.
